The target of the assay is Neuronal acetylcholine receptor subunit alpha-7 (Homo sapiens, UniProt P36544). Description: Partial agonist activity at human alpha7 nAChR expressed in Xenopus laevis oocytes assessed as induction of maximum current response administered for 12 secs followed by washout period for 181 secs by voltage clamp technique.

Data on one compound can be found in BindingDB's records for doi:10.1021/acs.jmedchem.7b00875 (University of Florida, 2017).

Neuronal acetylcholine receptor subunit alpha-7, sequence (P36544 whole entry): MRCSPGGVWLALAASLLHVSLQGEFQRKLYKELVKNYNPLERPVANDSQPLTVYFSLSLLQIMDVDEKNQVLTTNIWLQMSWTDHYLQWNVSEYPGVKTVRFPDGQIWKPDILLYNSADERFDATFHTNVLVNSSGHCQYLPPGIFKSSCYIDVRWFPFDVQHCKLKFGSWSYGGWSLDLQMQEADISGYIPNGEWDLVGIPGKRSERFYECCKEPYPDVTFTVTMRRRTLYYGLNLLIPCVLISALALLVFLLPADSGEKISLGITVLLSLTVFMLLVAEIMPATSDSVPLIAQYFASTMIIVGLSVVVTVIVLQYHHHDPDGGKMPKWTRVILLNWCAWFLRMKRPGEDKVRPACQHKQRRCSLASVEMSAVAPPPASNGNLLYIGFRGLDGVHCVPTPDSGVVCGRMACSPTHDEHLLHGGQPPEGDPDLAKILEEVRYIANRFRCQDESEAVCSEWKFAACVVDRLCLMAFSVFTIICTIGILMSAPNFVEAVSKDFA

By EC50 is commonly meant the midpoint of the concentration-response curve. Take `CC[N+]1(CC)CCN(c2ccccc2)CC1`: the EC50 is 221 µM.
